Assay results as given in US8652514B2, “Antimicrobial peptides” (priority 2009, dated 2014).
Where a SMILES comes first, the peptide text is derived from it. Bridges are numbered along the chain shown (N, C = ends). [ ]: non-standard residue; d: D form. Phe(ol) = N[C@H](CO)Cc1ccccc1; Aib = CC(C)(N)C(=O)O

What was measured:
[1] = Pore-forming activity: dissipation of a membrane potential in azolectin liposomes
Description: The minimal inhibitory concentration (MIC) was determined according to the method of Hancock (Hancock, R. E. W. Sep. 19, 1999, posting date. [Online.] Hancock Laboratory Methods. Department of Microbiology and Immunology, University of British Columbia, British Columbia, Canada. [Antibiotics and Antimicrobial Peptides: MIC Determination by Microtitre Broth Dilution Method, last accessed September 21st.]). Permeabilization of bacterial membranes and pore-forming activity were assayed as previously described (Herbst, R., Ott, C., Jacobs, T., Marti, T., Marciano-Cabral, F., Leippe, M. Pore-forming polypeptides of the pathogenic protozoon Naegleria fowleri. J. Biol. Chem. 2002. 277:22353-22360).
(§1) To investigate the mode of action of Alvinellacine, we used the fluorescent dye SYTOX-Green® and either the Gram-positive Bacillus megaterium or the Gram-negative E. coli (FIG. 3). […] We also measured the pore-forming activity of Alvinellacine to further characterize its mode of action by using a minimalistic membrane system. More precisely, we monitored the dissipation of a membrane potential induced in liposomes composed of azolectin, a crude phospho lipid mixture from soy bean. Pore-forming activity was detected at final concentrations up to 0.5 nM, whereas the positive control Alamethicine gave a signal at 0.1 nM.

Bacillus megaterium = experiment: Permeabilization of bacterial membranes (SYTOX-Green); format: cell-based; conditions: Gram-positive Bacillus megaterium, pH 7.4, measured 10 minutes after addition
Description: (§2) FIG. 3 presents the permeabilization of Gram-positive bacteria (Bacillus megaterium) and Gram-negative bacteria (Escherichia coli) after intended use of the Alvinellacine and two other AMPs (Cecropin originated from pork and Magainin originated from amphibian). These experiences were carried out at pH 7.4. The permeabilization of bacteria was measured 10 minutes after addition of each AMP for B. megaterium, while the same measurement was done after 120 minutes after addition of each AMP for E. coli.
(§3) The minimal inhibitory concentration (MIC) was determined according to the method of Hancock (Hancock, R. E. W. Sep. 19, 1999, posting date. [Online.] Hancock Laboratory Methods. Department of Microbiology and Immunology, University of British Columbia, British Columbia, Canada. [Antibiotics and Antimicrobial Peptides: MIC Determination by Microtitre Broth Dilution Method, last accessed September 21st.]). […]
as §1, with “Pore-forming activity was detected at final concentrations up to 0.5 nM, whereas the positive control Alamethicine gave a signal at 0.1 nM.” left out

[2] = Permeabilization of liposomes filled with a fluorescent reagent; conditions: positive control Alamethicin
Description: FIG. 2 presents the ability of the Alvinellacine to create pores in liposomes, herein used to mimic bacterial membranes.
The mechanism of antibacterial activity was determined using liposomes filled with a fluorescent reagent. Liposomes consist of a bi-layer of phospholipids herein used to mimic the bacterial membrane. Permeabilization of the liposomes would result in a release of the internal compound, thus reacting with the medium and producing a fluorescent light that can be measured by spectrometry. The test is carried out with both negative and positive controls. Alamethicin, which is an antibiotic known to create pores in the bacterial membrane, is used as the positive control. The negative control is a solution of liposomes, intended for measurement of background noise (FIG. 2).

E. coli = experiment: Permeabilization of bacterial membranes (SYTOX-Green); format: cell-based, Escherichia coli; conditions: Gram-negative E. coli, pH 7.4, measured 120 minutes after addition
Description: as §2, §3
as §1, with “Pore-forming activity was detected at final concentrations up to 0.5 nM, whereas the positive control Alamethicine gave a signal at 0.1 nM.” left out

| SMILES | final concentration at which pore-forming activity was detected [1] | membrane-permeabilizing activity compared with the two positive controls (Cecropin P1, Magainin II) (Bacillus megaterium) | permeabilization of liposomes (mechanism of antibacterial activity) [2] | membrane-permeabilizing activity compared with Cecropin P1 and Magainin II (E. coli) |
| --- | --- | --- | --- | --- |
| CC(=O)NC(C)(C)C(=O)N1CCC[C@H]1C(=O)NC(C)(C)C(=O)N[C@@H](C)C(=O)NC(C)(C)C(=O)N[C@@H](C)C(=O)N[C@@H](CCC(N)=O)C(=O)NC(C)(C)C(=O)N[C@H](C(=O)NC(C)(C)C(=O)NCC(=O)N[C@@H](CC(C)C)C(=O)NC(C)(C)C(=O)N1CCC[C@H]1C(=O)N[C@H](C(=O)NC(C)(C)C(=O)NC(C)(C)C(=O)N[C@@H](CCC(=O)O)C(=O)N[C@@H](CCC(N)=O)C(=O)N[C@H](CO)Cc1ccccc1)C(C)C)C(C)C [Alamethicine, Alamethicin, reference compound] (Ac-[Aib]P[Aib]A[Aib]AQ[Aib]V[Aib]GL[Aib]PV[Aib][Aib]EQ[Phe(ol)]) | 0.1 nM | – | – | – |
| CSCC[C@@H]1NC(=O)[C@@H]2CSSC[C@H](NC(=O)[C@H](CCCNC(=N)N)NC(=O)[C@H]([C@@H](C)O)NC(=O)[C@H](Cc3ccc(O)cc3)NC(=O)[C@@H](NC(=O)CNC(=O)[C@@H](N)CCCNC(=N)N)CSSC[C@@H](C(=O)N[C@H](C(=O)O)[C@@H](C)O)NC(=O)[C@H](C(C)C)NC(=O)[C@H](CCCNC(=N)N)NC1=O)C(=O)N[C@@H](Cc1c[nH]c3ccccc13)C(=O)N[C@@H](CCCCN)C(=O)N[C@@H](C(C)C)C(=O)NCC(=O)N[C@@H](CCCNC(=N)N)C(=O)N[C@@H](CC(N)=O)C(=O)NCC(=O)N[C@@H](CCCNC(=N)N)C(=O)N[C@@H](C(C)C)C(=O)N2 [Alvinellacine] (H-RGCYTRCWKVGRNGRVCMRVCT-OH; disulfide 3-21, 7-17 (inferred); N-terminus and C-terminus assumed) | up to 0.5 nM | lower activity | permealibilizes the bi-layer of phospholipids | over one order of magnitude higher |
